By ED50 is commonly meant the midpoint of the dose-response relation.

We go through 7 compounds from patent publication US4921887A, “Thiazole compounds and pharmaceutical composition comprising the same” (Fujisawa Pharmaceutical Company, Ltd., priority 1987, dated 1990).

≈ marks a conversion by molar mass, not a printed value.

The first experiment has as its system anaphylactic asthma in guinea pigs. The experiment in a line: Antagonistic action on anaphylactic asthma in guinea pigs. Format: in vivo, guinea pigs (male Hartley-strain). The settings on record: Cavia porcellus; oral, 30 minutes prior to egg-white albumin aerosol; survival not less than 2 hours after antigen spraying; read-out: Prophylactic Effect ED50. How it is done: Antagonistic action on anaphylactic asthma in guinea pigs
Male Hartley-strain guinea pigs weighing 305-400 g were used. These animals were sensitized by intravenous injection of 0.5 ml/animal of rabbit antiserum to egg-white albumin (PCA antibody titer 4,000). After 24 hours, the animals were housed individually in 5.3-liter plastic chambers. Using a commercial sprayer, a 5% egg-white albumin solution was sprayed in the form of an aerosol into each chamber at a rate of 0.16 ml/min for 2 minutes. Thirty minutes prior to the spraying of the egg-white albumin solution, the test compound was administered orally in varied concentrations. Each dosed group consisted of 5 animals. The prophylactic effect to anaphylaxis was expressed in terms of the ED50 value determined on the basis of the number of guinea pigs which had survived for not less than 2 hours after antigen spraying for each administration concentration of the test compound.
In the case of `CS(=O)(=O)Nc1nc(CN2CCC(OC(c3ccccc3)c3ccccc3)CC2)cs1` [Compound A, 2-Mesylamino-4-[4-(diphenylmethoxy)piperidinomethyl]thiazole], the ED50 is 0.03 mg/kg.

The next experiment has as its system SRS-A synthesis or release from peritoneal exudate cells (5-lipoxygenase). Briefly: Anti-SRS-A activity (5-lipoxygenase inhibitory activity). The conditions noted are these: A23187 (1 μg/ml)-stimulated rat peritoneal exudate cells, indomethacin 10 μg/ml; SRS-A by contractility of isolated guinea pig ileum; read-out: Inhibitory Concentration IC50. Format: cell-based, SD rats. The procedure:
Anti-SRS-A activity (5-lipoxygenase inhibitory activity)
Peritoneal exudate cells were collected from glycogen-injected SD rats and adjusted to 1×10^7 cells/ml with Tyrode's solution. One milliliter of the cell suspension was incubated with indomethacin (10 μg/ml) and each varied concentration of the test compound for 10 minutes and, then, further incubated with Ca^++ -ionophore (A23187, 1 μg/ml) for 10 minutes. The supernatant was collected by centrifugation and the SRS-A (slow-reacting substance of anaphylaxis) activity was determined in terms of contractility of the isolated guinea pig ileum in the presence of mepyramine, atropine and methysergide.
The results were expressed in terms of the 50% inhibitory concentration to SRS-A synthesis or release from peritoneal exudate cells.
Take `C[C@@H](O)C(=O)Nc1nc(CN2CCC(OC(c3ccccc3)c3ccccc3)CC2)cs1` [Compound E, 2-(D-Lactoylamino)-4-[4-(diphenylmethoxy)piperidinomethyl]thiazole]: the IC50 was 0.015 µg/mL (≈ 0.0332 µM).

As to `CCC(=O)Nc1nc(CN2CCC(OC(c3ccccc3)c3ccccc3)CC2)cs1` [Compound B, 2-Propionylamino-4-[4-(diphenylmethoxy)piperidinomethyl]thiazole], the IC50 was 0.023 µg/mL (≈ 0.0528 µM). On the same count and under the same terms, to `CCCC(=O)Nc1nc(CN2CCC(OC(c3ccccc3)c3ccccc3)CC2)cs1` [Compound C, 2-Butyrylamino-4-[4-(diphenylmethoxy)piperidinomethyl]thiazole] belongs 0.023 µg/mL (≈ 0.0512 µM); to `O=C(Nc1nc(CN2CCC(OC(c3ccccc3)c3ccccc3)CC2)cs1)C1CC1` [Compound D, 2-Cyclopropylcarbonylamino-4-[4-(diphenylmethoxy)piperidinomethyl]thiazole], 0.011 µg/mL (≈ 0.0246 µM); to `CNC(=O)Nc1nc(CN2CCC(OC(c3ccccc3)c3ccccc3)CC2)cs1` [Compound G, 2-(3-Methylureido)-4-[4-(diphenylmethoxy)piperidinomethyl]thiazole], 0.015 µg/mL (≈ 0.0344 µM).

In the case of `CCOC(=O)Nc1nc(CN2CCC(OC(c3ccccc3)c3ccccc3)CC2)cs1` [Compound F, 2-Ethoxycarbonylamino-4-[4-(diphenylmethoxy)piperidinomethyl]thiazole], the IC50 was determined as 0.014 µg/mL (≈ 0.031 µM).
